Test results reported in patent EP4803080A1, “METHOD FOR TREATING LEUKEMIA” (Shenzhen TargetRx Co., Ltd., priority 2023, dated 2025).
Read-outs that look alike come from different tables or passages of the source.

Tests used:
[1] = tested on: Ba/F3 BCR-ABL1 T315M; assay: Cell growth inhibition activity test, single agents and combinations (CellTiter-Glo, Chou-Talalay); format: cell-based, mouse; settings: Mus musculus, BaF3, 72 h, single agent; T315M; 72 hours; read-out: IC50
Experimental: (§1) A series of cell lines expressing BCR-ABL1 single mutations and compound mutations were constructed based on the Ba/F3 mouse pro-B cell line.
(§2) This assay utilized the CellTiter-Glo (CTG) kit provided by Promega, which is a homogeneous method for cell viability detection, measuring the viability of cultured cells by quantifying ATP. Cells were seeded in 96-well plates and treated with different concentrations of test substances. […] At the end of the treatment, CTG reagent (CellTiter-Glo kit) was added according to the manufacturer's instructions to detect cell viability values. Plates were read on a microplate reader (Biotek cytation 3.0). IC50 values were calculated using GraphPad Prism 7.0 software.

[2] = tested on: Ba/F3 BCR-ABL1 Y253H/T315I; assay: as above; format: cell-based, mouse; settings: BCR-ABL1 Y253H/T315I, read-out: IC50^I1
Experimental: as §1, §2

[3] = tested on: CML-CP with T315I mutation; assay: Phase I dose escalation and dose expansion clinical trial: efficacy in CML-CP subjects with T315I mutation; format: in vivo, humans
Source text: This study is a single-arm, open-label, dose-escalation and dose-expansion Phase I clinical trial.
The dose-escalation phase of this trial consists of about 8 dose groups, with oral administration under fasting conditions. Subjects in all dose groups will receive a single dose on Day 1 (D1), followed by pharmacokinetic (PK) and tolerability observations. […] After entering the multiple-dose period, subjects in the first dose group will initially receive twice-daily (BID) dosing (if PK data from the single-dose period are available, the dosing frequency during the multiple-dose period may be adjusted based on the PK data). The dosing frequency for subjects in subsequent dose groups after entering the multiple-dose period will be determined based on available PK and tolerability data. Throughout the trial, dosing frequency for all subjects may be adjusted based on continuously updated safety and PK data.
A continuous reassessment method (CRM) based on the principle of the escalation with overdose control (EWOC) design will be used to recommend the next specific dose for each dose escalation, thereby completing dose escalation and determining the maximum tolerated dose (MTD). If both the investigator and sponsor believe that higher dose groups may offer better efficacy and manageable safety, the EWOC-based CRM method may be used to explore higher doses. All enrolled subjects will receive long-term treatment with the test drug and undergo evaluations for safety, tolerability, and preliminary efficacy.
After obtaining certain research data from the dose-escalation phase, the investigator may comprehensively consider safety, efficacy, and other information to decide whether to enroll additional subjects at the MTD and/or lower dose levels to determine the recommended Phase II dose (RP2D). Two to four suitable dosing regimens will be selected for expansion in the target population (including subjects enrolled at the target dose levels during the escalation phase).
A total of 8 dose groups were established: 10 mg bid, 20 mg bid, 40 mg bid, 80 mg bid, 40 mg qd, 80 mg qd, 160 mg qd, and 240 mg qd.
The dose expansion phase was conducted in the following 3 cohorts: • Cohort 1: Subjects with chronic phase (CP) chronic myeloid leukemia (CML) who had previously received at least ≥2 different TKIs and were T315I-negative. A total of 3 dose groups were established: 40 mg qd, 80 mg qd, and 240 mg qd; • Cohort 2: Subjects with chronic phase (CP) chronic myeloid leukemia (CML) who have previously received ≥1 TKI and were T315I-positive. A total of 2 dose groups were established: 40 mg qd and 240 mg qd; • Cohort 3: Subjects with accelerated phase (AP) chronic myeloid leukemia (CML) who have previously received ≥1 TKI, regardless of T315I positivity. A total of 1 dose group was established: 240 mg qd.

[4] = tested on: K562-luc human leukemia cells; assay: Pharmacodynamic study in animal model inoculated via the carotid artery with K562-luc cells (brain metastasis model); settings: 50 mg/kg p.o. qd
Experimental: K562-luc tumor cells were cultured in IMDM medium containing 10% fetal bovine serum and 1500 ng/mL puromycin in an incubator at 37°C with 5% CO2. The medium was replaced every 2 to 3 days. The cells were subcultured when the confluence reaches 80% - 90%. Tumor cells in the logarithmic growth phase were used for in vivo tumor inoculation.
Test animals: NCG mice, 6-8 weeks old, female, all handled according to SOP. The animals were housed in an SPF facility accredited by AAALAC (Association for Assessment and Accreditation of Laboratory Animal Care), in a constant-temperature and constant-humidity laminar flow clean room, using individually ventilated cages (IVC). […]
The mouse was placed supine on a neck surgery board with the upper incisors hooked and both forelimbs abducted and fixed. […] Tumor growth was monitored once weekly using an in vivo imaging system. […]
For routine monitoring, not only tumor growth but also behavioral changes of the animals were observed, including animal movement, food and water consumption (by cage-side observation), body weight changes, whether the eyes/hair were glossy, and any other abnormal effects. Any deaths and/or clinical signs of abnormalities were recorded. […]
Statistical analysis: Statistical analysis between groups was performed using SPSS 16.0 software. Mean and standard error were calculated for all measured parameters according to the experimental design. […]

[5] = CML-CP subjects with T315I mutation, all doses, 16 evaluable, as of August 24, 2023
[6] = CML-CP subjects with T315I mutation, as of August 24, 2023
[7] = CML-CP subjects with T315I mutation, as of June 2, 2024
[8] = CML-CP with T315I mutation, 10 mg BID, 0 evaluable subjects, as of August 24, 2023
[9] = CML-CP with T315I mutation, 20 mg BID, 1 evaluable subject, as of August 24, 2023
[10] = CML-CP with T315I mutation, 40 mg BID, 1 evaluable subject, as of August 24, 2023
[11] = CML-CP with T315I mutation, 40 mg QD, 2 evaluable subjects, as of August 24, 2023
[12] = CML-CP with T315I mutation, 40 mg/day Total, 3 evaluable subjects, as of August 24, 2023
[13] = CML-CP with T315I mutation, 80 mg BID, 1 evaluable subject, as of August 24, 2023
[14] = CML-CP with T315I mutation, 80 mg QD, 0 evaluable subjects, as of August 24, 2023
[15] = CML-CP with T315I mutation, 80 mg/day Total, 1 evaluable subject, as of August 24, 2023
[16] = CML-CP with T315I mutation, 160 mg QD, 1 evaluable subject, as of August 24, 2023
[17] = CML-CP with T315I mutation, 160 mg/day Total, 2 evaluable subjects, as of August 24, 2023
[18] = CML-CP with T315I mutation, 240 mg QD, 10 evaluable subjects, as of August 24, 2023
[19] = CML-CP with T315I mutation, Total, all dose groups, 16 evaluable subjects, as of August 24, 2023

Question: For `O=C(Nc1ccc(OC(F)(F)Cl)cc1)c1cnc(N2CC[C@@H](F)C2)c(-c2cnccn2)c1` [Compound A, (R)-N-(4-(chlorodifluoromethoxy)phenyl)-6-(3-fluoropyrrolidin-1-yl)-5-(pyrazin-2-yl)nicotinamide], which IC50 [1] is on record?
Answer: Its IC50 is greater than 1000 nM.

Question: And the IC50 ([2]; IC50 of Compound A (I1) in Combination with olverembatinib (I2))?
Answer: The IC50 was 65.3 nM.

Question: What about the IC50 ([2]; IC50 of Compound A (I1) in Combination with ponatinib (I2)) of the same compound?
Answer: Its IC50 is 166 nM.

Question: And the IC50 ([2]; Mus musculus, BaF3, 72 h, Monotherapy (Table 12))?
Answer: The IC50 was 12300 nM.

Question: What about the CHR ([3]; CML-CP subjects with T315I mutation, all doses, 13 evaluable, as of August 24, 2023) of the same compound?
Answer: The CHR was 92.3%.

Question: And the CCyR [3, 5]?
Answer: The CCyR was 56.3%.

Question: What about the MCyR [3, 5] of the same compound?
Answer: The MCyR was 62.5%.

Question: What about the MMR ([3]; CML-CP subjects with T315I mutation, all doses, 17 evaluable, as of August 24, 2023) of the same compound?
Answer: Its MMR is 35.3%.

Question: And the “CHR within 3 treatment cycles” value ([3]; CML-CP subjects with T315I mutation, 20 evaluable, as of June 2, 2024)?
Answer: Its value is 80%.

Question: What about the “median time to CCyR” value [3, 6] of the same compound?
Answer: Its value is 2.83 (2.76, 2.92) months.

Question: And the “median time to MCyR” value [3, 6]?
Answer: The value was 2.81 (2.76, 2.83) months.

Question: What about the “median time to MMR” value [3, 6] of the same compound?
Answer: Its value is 2.81 (2.76, 3.68) months.

Question: And the “18-month cumulative incidence of CCyR” value [3, 7]?
Answer: The value was 69%.

Question: What about the “18-month cumulative incidence of MCyR” value [3, 7] of the same compound?
Answer: Its value is 76%.

Question: And the “18-month cumulative incidence of MMR” value [3, 7]?
Answer: Its value is 50%.

Question: And the CCyR [3, 8]?
Answer: Its CCyR is 0 n (%).

Question: What about the CHR [3, 8] of the same compound?
Answer: The CHR was 0 n (%).

Question: And the MCyR [3, 8]?
Answer: The MCyR was 0 n (%).

Question: And the MMR [3, 8]?
Answer: Its MMR is 0 n (%).

Question: What about the CCyR [3, 9] of the same compound?
Answer: Its CCyR is 1 (100) n (%).

Question: What about the CHR [3, 9] of the same compound?
Answer: The CHR was 1 (100) n (%).

Question: What about the MCyR [3, 9] of the same compound?
Answer: Its MCyR is 1 (100) n (%).

Question: What about the MMR [3, 9] of the same compound?
Answer: Its MMR is 0 n (%).

Question: And the CCyR [3, 10]?
Answer: The CCyR was 0 n (%).

Question: What about the CHR [3, 10] of the same compound?
Answer: The CHR was 1 (100) n (%).

Question: And the MCyR [3, 10]?
Answer: Its MCyR is 0 n (%).

Question: What about the MMR [3, 10] of the same compound?
Answer: The MMR was 0 n (%).

Question: What about the CHR ([3]; CML-CP with T315I mutation, 40 mg QD, 0 evaluable subjects, as of August 24, 2023) of the same compound?
Answer: The CHR was 0 n (%).

Question: What about the CCyR [3, 11] of the same compound?
Answer: Its CCyR is 2 (100) n (%).

Question: And the MCyR [3, 11]?
Answer: Its MCyR is 2 (100) n (%).

Question: What about the MMR ([3]; CML-CP with T315I mutation, 40 mg QD, 3 evaluable subjects, as of August 24, 2023) of the same compound?
Answer: The MMR was 2 (66.7) n (%).

Question: What about the CHR ([3]; CML-CP with T315I mutation, 40 mg/day Total, 1 evaluable subject, as of August 24, 2023) of the same compound?
Answer: The CHR was 1 (100) n (%).

Question: And the CCyR [3, 12]?
Answer: The CCyR was 3 (100) n (%).

Question: And the MCyR [3, 12]?
Answer: The MCyR was 3 (100) n (%).

Question: And the MMR ([3]; CML-CP with T315I mutation, 40 mg/day Total, 4 evaluable subjects, as of August 24, 2023)?
Answer: The MMR was 2 (50.0) n (%).

Question: What about the CHR ([3]; CML-CP with T315I mutation, 80 mg BID, 0 evaluable subjects, as of August 24, 2023) of the same compound?
Answer: The CHR was 0 n (%).

Question: And the CCyR [3, 13]?
Answer: Its CCyR is 1 (100) n (%).

Question: What about the MCyR [3, 13] of the same compound?
Answer: Its MCyR is 1 (100) n (%).

Question: And the MMR [3, 13]?
Answer: Its MMR is 1 (100) n (%).

Question: What about the CCyR [3, 14] of the same compound?
Answer: The CCyR was 0 n (%).

Question: And the CHR [3, 14]?
Answer: Its CHR is 0 n (%).

Question: What about the MCyR [3, 14] of the same compound?
Answer: The MCyR was 0 n (%).

Question: And the MMR [3, 14]?
Answer: Its MMR is 0 n (%).

Question: What about the CCyR [3, 15] of the same compound?
Answer: The CCyR was 0 n (%).

Question: And the CHR [3, 15]?
Answer: Its CHR is 1 (100) n (%).

Question: And the MCyR [3, 15]?
Answer: Its MCyR is 0 n (%).

Question: What about the MMR [3, 15] of the same compound?
Answer: The MMR was 0 n (%).

Question: And the CCyR [3, 16]?
Answer: Its CCyR is 1 (100) n (%).

Question: What about the CHR [3, 16] of the same compound?
Answer: Its CHR is 1 (100) n (%).

Question: And the MCyR [3, 16]?
Answer: Its MCyR is 1 (100) n (%).

Question: And the MMR [3, 16]?
Answer: Its MMR is 1 (100) n (%).

Question: What about the CHR ([3]; CML-CP with T315I mutation, 160 mg/day Total, 1 evaluable subject, as of August 24, 2023) of the same compound?
Answer: The CHR was 1 (100) n (%).

Question: And the CCyR [3, 17]?
Answer: Its CCyR is 2 (100) n (%).

Question: And the MCyR [3, 17]?
Answer: Its MCyR is 2 (100) n (%).

Question: And the MMR [3, 17]?
Answer: Its MMR is 2 (100) n (%).

Question: What about the CCyR [3, 18] of the same compound?
Answer: The CCyR was 4 (40.0) n (%).

Question: And the CHR [3, 18]?
Answer: Its CHR is 9 (90.0) n (%).

Question: What about the MCyR [3, 18] of the same compound?
Answer: Its MCyR is 5 (50.0) n (%).

Question: What about the MMR [3, 18] of the same compound?
Answer: Its MMR is 2 (20.0) n (%).

Question: And the CHR ([3]; CML-CP with T315I mutation, Total, all dose groups, 13 evaluable subjects, as of August 24, 2023)?
Answer: The CHR was 12 (92.3) n (%).

Question: What about the CCyR [3, 19] of the same compound?
Answer: The CCyR was 9 (56.3) n (%).

Question: And the MCyR [3, 19]?
Answer: Its MCyR is 10 (62.5) n (%).

Question: What about the MMR ([3]; CML-CP with T315I mutation, Total, all dose groups, 17 evaluable subjects, as of August 24, 2023) of the same compound?
Answer: The MMR was 6 (35.3) n (%).

Question: What about the “BLI signal intensity of brain tumors (fluorescent signal)” value ([4]; day 28 after dosing, versus control group, Fig. 8) of the same compound?
Answer: Its value is “significantly inhibited”.

Question: And the body weight loss ([4]; during the treatment period)?
Answer: The body weight loss was “did not show significant body weight loss”.
